The values below come from patent US9555038B2, “Heterocycle-substituted tetracyclic compounds and methods of use thereof for the treatment of viral diseases” (Merck Sharp & Dohme Corp., priority 2013, dated 2017).

One experiment concerns HCV replicon 1A. Put plainly: Cell-based HCV Replicon Assay A, replicon 1A. An outline of the steps:
(§1)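 2000 cells/well; 10 serial dilutions, top concentration 333.3 nM to 1.667 nM; 0.5% DMSO, 5% FBS; 3 days; lysis; multiplex TaqMan RT-PCR (NS5B/Neo plus cyclophilin), RNA from linear Ct standard curves.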

Another experiment relates to HCV replicon 1AY93H. Put plainly: Cell-based HCV Replicon Assay A, replicon 1AY93H. Put shortly: as §1
The next experiment relates to HCV replicon 2B. Put plainly: Cell-based HCV Replicon Assay A, replicon 2B. Put shortly: as §1
The subject of another experiment is HCV replicon 1AQ30D. Put plainly: Cell-based HCV Replicon Assay B, replicon 1AQ30D. An outline of the steps:
(§2)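 EC50 defined as the drug concentration giving a CT increase of 1 above projected baseline, from real-time RT-PCR of replicon RNA using genotype-specific primers and probes. Cells were seeded in 5% FBS, dosed after 24 h and incubated 3 days before lysis.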

Another experiment deals with HCV replicon 1B. Put plainly: Cell-based HCV Replicon Assay B, replicon 1B. An outline of the steps:
as §2

The mark [1] stands for this setting: read-out: 1A Y93H IC50, replicon 1AY93H.

Molecules are shown by their SMILES. Where two headings read alike, the source gives them in different places.

Consider `COC(=O)NC(C(=O)N1CCC[C@H]1c1ncc(-c2ccc3c(c2)cc2n3C(c3cnc(C4(C)CCCC4)s3)Oc3cc(-c4cnc([C@@H]5CCCN5C(=O)[C@@H](NC(=O)OC)C(C)C)[nH]4)cc(F)c3-2)[nH]1)C1CCOC(C)(C)C1` (single isomer, unassigned) [Compound 471], for which the IC50 in the experiment with HCV replicon 1A came to 2.8 pM; in the experiment on HCV replicon 1AY93H (setting [1]), 3 pM; in the experiment with HCV replicon 2B (read-out: 2B IC50, replicon 2B), 4 pM; with HCV replicon 1AQ30D (read-out: 1A Q30D IC50, replicon 1AQ30D), 0.013 nM; in the experiment on HCV replicon 1B, 3.5 pM.
With `COC(=O)N[C@H](C(=O)N1CCC[C@H]1c1ncc(-c2cc(F)c3c(c2)OC(c2cnc(C4CC4)s2)n2c-3cc3cc(-c4cnc([C@@H]5CC6(C)CC6N5C(=O)[C@@H](NC(=O)OC)C(C)C)[nH]4)ccc32)[nH]1)C(C)C` (single isomer, unassigned) [Compound 518], the IC50 was 2.5 pM in the experiment with HCV replicon 1A; 16 pM in the experiment on HCV replicon 1AY93H (replicon 1AY93H, read-out: 1A Y93H IC50); 15 pM with HCV replicon 2B (replicon 2B, read-out: 2B IC50); 0.099 nM in the experiment with HCV replicon 1AQ30D (replicon 1AQ30D, read-out: 1A Q30D IC50); 2.4 pM in the experiment with HCV replicon 1B.
Take `CCCc1ncc(C2Oc3cc(-c4cnc([C@@H]5CCCN5C(=O)[C@@H](NC(=O)OC)C(C)C)[nH]4)cc(C)c3-c3cc4cc(-c5cnc([C@@H]6C[C@H]7C[C@H]7N6C(=O)[C@@H](NC(=O)OC)C(C)C)[nH]5)ccc4n32)s1` (single isomer, unassigned) [Compound 206]: the IC50 with HCV replicon 1A stood at 7 pM; in the experiment on HCV replicon 1AY93H (setting [1]), 23 pM; in the experiment with HCV replicon 2B (read-out: 2B IC50, replicon 2B), 30 pM; in the experiment with HCV replicon 1AQ30D (Hepatitis C virus, read-out: 1A Q30D IC50 (nM), replicon 1AQ30D), 0.83 nM; with HCV replicon 1B (Hepatitis C virus) it was 4 pM.
